In US5006448A, “Photographic material and process” (Eastman Kodak Company, priority 1989, dated 1991):

Experiment: Imbibition test of intrinsic inhibition strength of free inhibitors
Settings: inhibitor prebath 5×10^-5 M, pH 10 carbonate buffer plus 0.1% dimethylformamide, 38° C., 2 min
Text: Development inhibitors are generally released imagewise from an incorporated DIR compound during processing of the exposed photographic element. To evaluate the intrinsic inhibition strength of such inhibitors, independent of DIR release, an imbibition test is used. This involves imbibing an exposed film strip with a solution containing a given concentration of the free inhibitor to be tested. Nitrogen burst agitation of the imbibing solution improves the repeatability and effectiveness of inhibitor incorporation. The measured strength obtained by this test serves as an important guide in selecting inhibitors for desired photographic acutance improvements.
Film samples for imbibition testing of inhibitors were prepared having the following schematic layer structure and using a silver bromoiodide emulsion containing 6.4 mole % iodide (numerical values denote coating coverages in mg/m^2 and the silver halide values are for equivalent weights of silver):
Film strips cut from this coated element were exposed through a graduated density test object and a Kodak Wratten 99 (green) filter. Before development a strip was immersed at 38° C. under nitrogen agitation in each of the separate prebaths containing a test inhibitor at 5×10^-5 M concentration in a pH 10 carbonate buffer plus 0.1% dimethylformamide. As controls, each test set included a check strip which was immersed in a prebath containing no inhibitor and strips immersed in prebaths containing the comparison inhibitors phenylmercaptotetrazole (CI-1) and ethylmercaptotetrazole (CI-2). Photographic processing was carried out at 38° C. in the following steps:
The density of each test strip at this same exposure was noted and the inhibition strength number (I.S. No.) calculated using the equation: [formula]
Larger I.S. numbers for given inhibitors indicate stronger inhibition resulting in less dye density formed. Table IV lists these […], as well as calculated log P values, for a number of inhibitors released by compounds of the invention and for comparison inhibitors CI-1 through CI-8. It can be seen that, at equivalent partition coefficient (Log P) values, the inhibitors useful in the invention show higher inhibition strength than the controls. Alternatively, at approximately equal inhibition strength, inhibitors of the invention have lower partition coefficients.

With `CCCCSCCN(CCSCCCC)c1nn[nH]n1` [Compound I-37] the “Inhibition Strength No.” value was 66.

For `CCCCCCCCc1nn[nH]n1` [CI-3, reference compound], the “Inhibition Strength No.” value was 18.

In the case of `CCSCCSCCCc1nn[nH]n1` [Compound I-134], the “Inhibition Strength No.” value is reported as 77.

In the case of `CCCCCCSCCCc1nn[nH]n1` [Compound I-23], the “Inhibition Strength No.” value is reported as 77.

In the case of `CCCCCCCCSCCc1nn[nH]n1` [Compound I-21], the “Inhibition Strength No.” value is reported as 95.

For `CCCCSCCCOc1ccc(-c2nn[nH]n2)cc1` [Compound I-26], the “Inhibition Strength No.” value was 67.

With `CCCCCCN(CCCCCC)c1nn[nH]n1` [CI-5, reference compound] the “Inhibition Strength No.” value was 52.

In the case of `CCCCCCCCCSc1nn[nH]n1` [CI-4, reference compound], the “Inhibition Strength No.” value is reported as 43.

In the case of `Sc1nnnn1-c1ccccc1` [CI-1, phenylmercaptotetrazole, reference compound], the “Inhibition Strength No.” value is reported as 80.

In the case of `CCn1nnnc1S` [CI-2, reference compound], the “Inhibition Strength No.” value is reported as 15.

For `CCCSc1ccc2[nH]nnc2c1` [Compound I-138], the “Inhibition Strength No.” value was 69.

In the case of `CSCCSc1ccc2[nH]nnc2c1` [Compound I-139, 6'-(2-methylthioethylthio)benzotriazole], the “Inhibition Strength No.” value is reported as 88.

With `CCCCCCCSCCCc1nn[nH]n1` [Compound I-22] the “Inhibition Strength No.” value was 94.

With `CCCSCCSCc1ccccc1-c1nn[nH]n1` [Compound I-136] the “Inhibition Strength No.” value was 84.

In the case of `CCCCCCCCCSCc1nn[nH]n1` [Compound I-5], the “Inhibition Strength No.” value is reported as 95.

For `CCOc1cc2nn[nH]c2cc1OCC` [CI-8, reference compound], the “Inhibition Strength No.” value was 35.

With `CCCCSCCCCCCc1nn[nH]n1` [Compound I-51] the “Inhibition Strength No.” value was 83.

In the case of `CCCSCCOC(=O)c1ccc2[nH]nnc2c1` [Compound I-137], the “Inhibition Strength No.” value is reported as 86.

In the case of `O=C(Oc1ccccc1)c1ccc2[nH]nnc2c1` [CI-7, reference compound], the “Inhibition Strength No.” value is reported as 40.

With `CCCCCOc1ccc(-c2nn[nH]n2)cc1` [CI-6, reference compound] the “Inhibition Strength No.” value was 16.

In the case of `CCCSCCCc1nn[nH]n1` [Compound I-24], the “Inhibition Strength No.” value is reported as 20.
